Data taken from ChEMBL document CHEMBL5137132, “Ulleungdolin, a Polyketide-Peptide Hybrid Bearing a 2,4-Di-O-methyl-β-d-antiarose from Streptomyces sp. 13F051 Co-cultured with Leohumicola minima 15S071” (2022).

What was measured:
MDA-MB-231 [1] = assay: Anti-migration activity against human MDA-MB-231 cells assessed as inhibition of cell migration at 10 uM incubated for 18 hrs by wound healing assay; assay type: functional
MDA-MB-231 [2] = assay: Anti-migration activity against human MDA-MB-231 cells assessed as inhibition of cell migration at 25 uM incubated for 18 hrs by wound healing assay; assay type: functional

CO[C@@H]1[C@@H](O)[C@@H](OC)[C@H](Oc2cccc3c2C(=O)N([C@@]2(C(=O)N[C@H](C(=O)N[C@H](C(=O)O)c4ccc(O)cc4)[C@H](O)CC(N)=O)C[C@@H]2C)[C@H]3CCCCCCCC(=O)O)O[C@@H]1C
inhibition at 10 µM (MDA-MB-231 [1]): 42% | inhibition at 25 µM (MDA-MB-231 [2]): 100%
